Test system: 4 mm punch biopsy wounds of the upper inner arm
Test: Topical oestrogen patch clinical trial of wound healing in elderly men and women
Type: in vivo, human
Parameters: key to Collagen Quantities: +=minimal quantities; ++=less than normal skin; +++=similar to normal skin; ++++=greater than normal skin
Conditions: for Collagen Quantities: oestradiol patch, DAY 80

C[C@]12CC[C@@H]3c4ccc(O)cc4CC[C@H]3[C@@H]1CC[C@@H]2O [Oestrogen]
Collagen Quantities (FEMALES (3A)): ++++ | Collagen Quantities (MALES (3C)): ++++ | Collagen levels (day 7 and day 80 post-wounding, both sexes (3A and 3C) compared to placebo): consistently increased

Reference: patent US6696433B2, “Use of sex steroids function modulators to treat wounds and fibrotic disorders” (Renovo Limited, priority 1996, dated 2004)
